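Cultured in 96-well plates, cells were exposed to test compound for 48 hours across five concentrations. GI50 is the concentration that inhibits growth by half.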 The source made the active and inactive calls. No stated cut-off is given here; in the data, active = GI50 up to about 1.1 µM and inactive = higher.
Tests used:
Assay in all cases: NCI anticancer screen, dose series, 48 h
PC-3 = system: PC-3
NCI/ADR-RES = system: NCI/ADR-RES
COLO 205 = system: COLO 205
OVCAR-4 = system: OVCAR-4
SK-OV-3 = system: SK-OV-3
T47D = system: T47D
HOP-92 = system: HOP-92
SNB-75 = system: SNB-75
SW-620 = system: SW-620
Malme-3M = system: Malme-3M
MOLT-4 = system: MOLT-4
RPMI-8226 = system: RPMI-8226
OVCAR-5 = system: OVCAR-5
KM12 = system: KM12
OVCAR-8 = system: OVCAR-8
NCI-H226 = system: NCI-H226
CAKI-1 = system: CAKI-1
U-251 = system: U-251
IGROV-1 = system: IGROV-1
CCRF-CEM = system: CCRF-CEM

Row | SMILES | GI50 (PC-3) | GI50 (NCI/ADR-RES) | GI50 (COLO 205) | GI50 (OVCAR-4) | GI50 (SK-OV-3) | GI50 (T47D) | GI50 (HOP-92) | GI50 (SNB-75) | GI50 (SW-620) | GI50 (Malme-3M) | GI50 (MOLT-4) | GI50 (RPMI-8226) | GI50 (OVCAR-5) | GI50 (KM12) | GI50 (OVCAR-8) | GI50 (NCI-H226) | GI50 (CAKI-1) | GI50 (U-251) | GI50 (IGROV-1) | GI50 (CCRF-CEM)
1 | CCCCC/C=C\C=C\CCCCCCCCC(=O)OC | > 100 µM (inactive) | > 100 µM (inactive) | > 100 µM (inactive) | > 100 µM (inactive) | > 100 µM (inactive) | > 100 µM (inactive) | > 100 µM (inactive) | > 100 µM (inactive) | > 100 µM (inactive) | > 100 µM (inactive) | > 100 µM (inactive) | > 100 µM (inactive) | > 100 µM (inactive) | > 100 µM (inactive) | > 100 µM (inactive) | > 100 µM (inactive) | > 100 µM (inactive) | > 100 µM (inactive) | > 100 µM (inactive) | –
2 | CCCCc1ccc(N2C(=O)c3cccnc3S2(=O)=O)cc1 | > 100 µM (inactive) | > 100 µM (inactive) | > 100 µM (inactive) | > 100 µM (inactive) | > 100 µM (inactive) | > 100 µM (inactive) | > 100 µM (inactive) | > 100 µM (inactive) | > 100 µM (inactive) | > 100 µM (inactive) | > 100 µM (inactive) | > 100 µM (inactive) | > 100 µM (inactive) | > 100 µM (inactive) | > 100 µM (inactive) | > 100 µM (inactive) | > 100 µM (inactive) | > 100 µM (inactive) | > 100 µM (inactive) | > 100 µM (inactive)
3 | C=C1C(=O)C23CC1CCC2C12CO[C@@]3(O)[C@@H](O)C1C(C)(C)C=CC2=O (stereo partly drawn) | 2.74 µM (inactive) | 9.31 µM (inactive) | 0.714 µM (active) | – | 7.53 µM (inactive) | 5.38 µM (inactive) | 0.785 µM (active) | 6.03 µM (inactive) | 2.93 µM (inactive) | 0.755 µM (active) | 0.281 µM (active) | 0.75 µM (active) | 4.76 µM (inactive) | 14.6 µM (inactive) | 0.16 µM (active) | 6.44 µM (inactive) | 2.44 µM (inactive) | 1.49 µM (inactive) | 3.94 µM (inactive) | 0.313 µM (active)
4 | Cc1cc(/N=C/c2ccc(F)cc2)n(-c2ccccc2)n1 | > 100 µM (inactive) | > 100 µM (inactive) | 37.1 µM (inactive) | 75.7 µM (inactive) | > 100 µM (inactive) | 27.2 µM (inactive) | 89.1 µM (inactive) | 56.1 µM (inactive) | > 100 µM (inactive) | 75.5 µM (inactive) | 35.3 µM (inactive) | 21.3 µM (inactive) | > 100 µM (inactive) | 51.8 µM (inactive) | > 100 µM (inactive) | > 100 µM (inactive) | > 100 µM (inactive) | > 100 µM (inactive) | 84.3 µM (inactive) | 34.6 µM (inactive)
